Measurements published in US9364469B1, “Identification of a new AMPK activator for treatment of lung cancer” (Macau University of Science and Technology, priority 2015, dated 2016).

Tests used:
H1975 cells [1] = test: MTT cytotoxicity assay; assay type: cell-based; conditions: 72 h treatment, read-out: IC50 (cell proliferation, MTT)
Protocol: H1975 was purchased from ATCC (American type culture collection) and was cultivated with RPMI 1640 medium supplement with 10% fetal bovine serum (Gibco, Big Cabin, Oklahoma, Me., USA), 100 U/mL, penicillin and 100 μg/mL and streptomycin (Gibco, Big Cabin, Oklahoma, Me., USA). The cells were cultured in incubator with 5% CO2 at 37° C.
Cells were seeded in a 96-well microplate with 5000 cells/well confluence, and put into the incubator overnight for cell adhesion. Different concentrations of the drug D561-0775 were added with Dimethyl sulfoxide (DMSO) as vehicle control. The microplates were incubated for another 72 hours. The whole experiment was repeated in triplicate. 10 μL of MTT (5 mg/mL) solution was added to each well. The plate was placed back into the incubator for 4 hours. After that, 100 μL of resolved solution (10% SDS and 0.1 mM HCL) was added to each well. Before dissolving the formazan crystals, the microplate was put back into the incubator for another 4 hours. The absorbance of the plate was measured at 570 nm with reference at 650 nm by a microplate reader (Tecan, Morrisville, N.C., USA). Cell viability was calculated by percentages of the absorbance of the treatment group divided by the absorbance of untreated group. At least three independent experiments were performed for data analysis and presentation.

H1975 cells [2] = test: Apoptosis assay (Annexin V/PI flow cytometry, morphology observation); assay type: cell-based; conditions: 48 h
Protocol: H1975 cells (1×10^5 cells/well) were seeded in a 6-well plate for 24 hours, and treated with the indicated concentrations of D561-0775 for an additional 48 hours at 37° C. After 48 hours, the cells were washed by ice-cold 1×PBS once and harvested by trypsination. Then cells were centrifuged, collected and re-suspended in ice-cold 1×PBS. After removing the supernatants, cell pellets were re-suspended in 100 μL 1× Annexin-binding buffer. The cells were then double-stained with Annexin-V FITC and PI (100 μg/mL) of 2 μL respectively for 15 min at room temperature in dark. After that, 300 μL 1× Annexin-binding buffer was added. Apoptotic cells were quantitatively counted by a BD Aria III Flow Cytometer (BD Biosciences, San Jose, Calif., USA)

AMPK = test: Western blot analysis of AMPK phosphorylation; assay type: cell-based; conditions: H1975 cells, 24 hours
Protocol: (§1) After incubating H1975 cells with D561-0775 for 24 hours, H1975 cells were harvested and washed with cold 1×PBS. Then, cells were lysed with ice-cold RIPA lysis buffer with protease and phosphatase inhibitors added to extract the cell protein extraction. The supernatants were collected by centrifugation at 12,000 g, for 5 minutes. The quantitation of total protein extraction was measured by Bio-Rad DCTM protein assay kit (Bio-Rad, Philadelphia, Pa., USA). Then 30 μg of protein was loaded and electrophoretically separated on 8% SDS-PAGE gel and then transferred to Nitrocellulose (NC) membrane. Membranes were blocked with 5% non-fat milk and […] containing 0.1% Tween-20 (TBST) for 1 hour at room temperature. After 1 hour, membranes were incubated with primary anti-bodies (1:1000 dilution) against GAPDH, total/phosphor-ACC, total-AMPK, and (1:500 dilution) against phosphor-AMPK, at 4° C. with gently shaking overnight. Membranes were washed with TBST for 3 times (5 minutes/time), and incubated with secondary fluorescent antibody (1:10000 dilutions) for 1 hour at room temperature. After rewashing the membranes with TBST for 3 times (15 minutes/time), the stripes were visualized by LI-COR Odessy scanner (Belfast, Me., USA).

ACC = test: Western blot analysis of ACC phosphorylation; assay type: cell-based; conditions: H1975 cells, 24 hours
Protocol: as §1

AMPK kinase = test: AMPK enzyme activity assay (CycLex AMPK Kinase Assay Kit); assay type: biochemical; conditions: indicated concentrations, n=3, ** p<0.005, ***p<0.001
Source text: The CycLex AMPK Kinase Assay Kit (CycLex Co., Ltd., Nagano, Japan) was used to detect the activation of AMPK by D561-0775. AMP was used as positive control, compound c was used as AMPK inhibitor, and AMPK kinase was used for representing the basal level.

[3] = 20 μM treatment group, **p<0.01, n=3

AMPK kinase activity (fold of AMPK kinase alone group) (AMPK kinase): enhanced in a dose-dependent manner
SMILES: N#Cc1nc(-c2ccc(COc3ccc(Br)cc3)o2)oc1NCc1cccnc1 [D561-0775]
IC50 (H1975 cells [1]): 9.59 ± 1.73 µM
percentage of apoptotic cells vs control group (H1975 cells [2]; [3]): significant higher percentage of apoptotic cells
percentage of viable cells vs control group (H1975 cells [2]; [3]): lower percentage of viable cells
apoptosis induction (flow cytometry) (H1975 cells [2]; Annexin V/PI): induced significant level of apoptosis in a dose-dependent manner
cell morphology (H1975 cells [2]; morphology observation): floated and rounded-up starting at 20 μM
phosphorylation of AMPK (AMPK): activated phosphorylation of both AMPK and ACC in a dose-dependent manner
phosphorylation of ACC (ACC): activated phosphorylation of both AMPK and ACC in a dose-dependent manner
